# Results reported in patent publication US4374146A, “Topical inflammatory pharmaceutical formulations” (Burroughs Wellcome Co., priority 1980, dated 1983).
# Like-named read-outs stand apart in the source and are kept apart here.
# Columns and labels:
# [1] = system: mouse liver, mouse kidney; conditions: in vivo, ip
# [2] = Acute toxicity assay, mouse; conditions: in vivo
# [3] = system: carrageenin pleurisy (3 hr exudate volume, mobilized neutrophils); test: Carrageenin Pleurisy Assay (CPA); type: in vivo, rat; conditions: for ED50: Rattus norvegicus, Neutrophil, po; for CPA Local activity (inactive at stated dose): inactive at 1.0 mg/rat
# Experimental: (§1) A. Carrageenin Pleurisy Assay (CPA)
# (§2) Following the procedure described by Vinegar et al. in European J. Rheumatology and Inflammation, 1, 204, (1978) the acute anti-inflammatory activity of the compound of formula (I) was compared with that of known anti-inflammatory drugs. Two assays were performed: in the first, the average 3 hr exudate volume for each drug-treated group was determined and the % inhibition relative to solvent-fed control animals calculated, the ED50 being the dose required to reduce the 3 hr exudate volume by 50%; in the second, the number of mobilized neutrophils was quantified and the % inhibition relative to solvent-fed control animals calculated, the ED50 being the dose required to reduce the number of neutrophils mobilized at 3 hrs by 50%.
# [4] = system: trypsin hyperalgesia, rat hindlimb; test: Trypsin Hyperalgesic Assay (THA), rat hindlimb; type: in vivo; conditions: for ED50: po, read-out: THA ED50; for Duration of Analgesia, time in hours to reduce -1.5 × THA ED50 to 40% inhibition: rat
# From the text: B. Trypsin Hyperalgesic Assay (THA)
# acetic acid writhing [5] = test: Acetic Acid Writhing Test (AAWT), mouse; type: in vivo; conditions: po, read-out: AAWT ED50
# From the text: (§3) A. Acetic Acid Writhing Test (AAWT)
# (§4) Using the procedure described by Koster et al. in Fed. Proc. 18, 412 (1959) and Vinegar et al. in Handbook of Experimental Pharmacology, 50-2, ch.
# [6] = system: yeast-induced hyperthermia; test: Yeast-Induced Hyperthermia Assay; type: in vivo, rat; conditions: for ED50: po, rat
# From the text: The Yeast-Induced Hyperthermia Assay was used according to the procedure described by Khalili-Varasteh et al. in Arch. Int. Pharmacodyn.
# rat liver, rat kidney [7] = conditions: in vivo, ip
# methemoglobinemia [8] = test: Methemoglobinemia (cyanosis), dog; conditions: for Methemoglobinemia (Cyanosis): dog
# [9] = system: carrageenin pleurisy in Adrex; test: AI activity in Adrex, carrageenin pleurisy p.o.; type: in vivo, rat; conditions: CP p.o.; for AI Activity in Adrex, Vol.: exudate volume
# Experimental: as §1, §2
# methemoglobinemia [10] = test: Methemoglobinemia (cyanosis), rat; conditions: for Methemoglobinemia (Cyanosis): rat, @ 500 mg/kg p.o.
# hepatic glutathione = test: Hepatic glutathione depletion in mouse; type: in vivo; conditions: for Hepatic Gluathione Depletion: @ 40% of LD50, i.p. in mouse, over a 5 hr period
# [11] = Acute toxicity assay, rat; conditions: in vivo
# Experimental: Four non-fasted male rats of 160-250 gram body weight were used for each dose level. The compound was injected by the indicated route and the symptom onset time, the intensity of the effect and the duration during a 4 hour observation period are recorded. The LD50 estimated is based on a 7 day observation and is determined by the method of Miller and Tainter (Proc. Soc. Exp. Biol. Med. 57:261, 1944).
# gastric damage [12] = test: Gastric damage in the rat; type: in vivo
# acetic acid writhing [13] = test: Acetic Acid Writhing Test (AAWT), rat; type: in vivo; conditions: po, read-out: AAWT ED50
# From the text: as §3, §4
# hot plate analgesia = test: Hot plate assay for strong analgesic activity; conditions: in vivo
# [14] = system: mouse liver, mouse kidney; test: Histopathology, mouse liver and kidney
# rat liver, rat kidney [15] = test: Histopathology, rat liver and kidney; conditions: for Histopathology, Rat Kidney / Histopathology, Rat Liver: @ 40% LD50, i.p.
# platelet aggregation = test: Platelet aggregation inhibition
# prostaglandin synthetase = test: Prostaglandin synthetase inhibition; type: biochemical
# lipoxygenase = test: Lipoxygenase inhibition; type: biochemical
# [16] = system: analgesic activity (naloxone); test: Naloxone antagonism of analgesic activity; conditions: in vivo
# peroxidase = test: Peroxidase inhibition; type: biochemical
# gastric damage [17] = test: Gastric damage (general statement); conditions: in vivo
# opiate receptors = test: Opiate receptor binding in vitro
# [18] = dose reducing 3 hr exudate volume by 50%, read-out: CPA ED50, Vol.
structure (smiles),measurement,setting,value
CC(=O)Nc1ccc(O)cc1 [Acetaminophen],"Histopathology, Mouse Kidney",[1],+
same,"Histopathology, Mouse Liver",[1],+
same,LD50 at 168 h,[2]; ip,880 mg/kg
same,LD50 at 168 h,[2]; po,1640 mg/kg
same,"Duration of AI Activity, time in hrs to reduce 2 × CP cell ED50 to 40% inhibition of Vol.: Cells",[3],3.8 h
same,ED50,[3]; [18],172 ± 22.4 mg/kg
same,"Duration of AI Activity, time in hrs to reduce 2 × CP cell ED50 to 40% inhibition of Vol.: Vol.",[3],2.2 h
same,CPA Local activity (inactive at stated dose),[3]; local,Inactive
same,ED50,"[4]; rat hindlimb, p.o.",95 ± 17.2 mg/kg
same,ED50,"acetic acid writhing [5]; mouse, p.o.",301 ± 11.5 mg/kg
same,ED50,[6],72 ± 8.6 mg/kg
same,"Histopathology, Rat Kidney","rat liver, rat kidney [7]",+
same,"Histopathology, Rat Liver","rat liver, rat kidney [7]",+
same,Methemoglobinemia (Cyanosis),methemoglobinemia [8]; @ 100 mg/kg p.o.,No
same,"AI Activity in Adrex, Cells",[9],Weakly Active
same,"AI Activity in Adrex, Vol.",[9],Active
same,Methemoglobinemia (Cyanosis),methemoglobinemia [10],No
same,Hepatic Gluathione Depletion,hepatic glutathione,+ (90% depletion over a 5 hr period)
same,LD50 at 168 h,[11]; ip,1640 mg/kg
CC(=O)Oc1ccccc1C(=O)O [Aspirin],LD50 at 168 h,[2]; ip,220 mg/kg
same,LD50 at 168 h,[2]; po,1100 mg/kg
same,"Duration of AI Activity, time in hrs to reduce 2 × CP cell ED50 to 40% inhibition of Vol.: Cells",[3],3.0 h
same,ED50,"[3]; 3 h, read-out: CPA ED50, Cells",75 ± 7.5 mg/kg
same,ED50,"[3]; 3 h, read-out: CPA ED50, Vol.",28 ± 3.2 mg/kg
same,"Duration of AI Activity, time in hrs to reduce 2 × CP cell ED50 to 40% inhibition of Vol.: Vol.",[3],35.0 h
same,"CPA ED50, Local",[3]; local,0.04 mg/rat
same,Activity in trypsin hyperalgesic assay,[4],essentially inactive
same,THA activity (inactive at stated dose),"[4]; rat hindlimb, p.o., inactive at 360 mg/kg",Inactive
same,Gastric damage in the rat,gastric damage [12]; single oral dose of 30 mg/kg,produces ulcers and haemorrhages
same,ED50,acetic acid writhing [13]; Rattus norvegicus,21 ± 3.4 mg/kg
same,ED50,acetic acid writhing [5]; Mus musculus,301 ± 21.1 mg/kg
same,ED50,[6],50 ± 8.1 mg/kg
same,"AI Activity in Adrex, Cells",[9],Inactive
same,"AI Activity in Adrex, Vol.",[9],Active
same,LD50 at 168 h,"[11]; ip, 7 day observation",500 mg/kg
COc1ccc2c3c1O[C@H]1[C@@H](O)C=C[C@H]4[C@@H](C2)N(C)CC[C@@]341 [Codeine],Activity in hot plate assay for strong analgesic activity,hot plate analgesia,active
"CC(=O)Nc1ccc2c(c1)OCO2 [Compound of formula (I), N-(1,3-benzodioxol-5-yl)acetamide]",LD50 at 168 h,[2]; ip,250 mg/kg
same,LD50 at 168 h,[2]; po,660 mg/kg
same,"Duration of AI Activity, time in hrs to reduce 2 × CP cell ED50 to 40% inhibition of Vol.: Cells",[3],6 h
same,ED50,[3]; [18],34 ± 2.2 mg/kg
same,ED50,"[3]; dose reducing neutrophils mobilized at 3 hrs by 50%, read-out: CPA ED50, Cells",49 ± 6.8 mg/kg
same,"Duration of AI Activity, time in hrs to reduce 2 × CP cell ED50 to 40% inhibition of Vol.: Vol.",[3],6 h
same,Anti-inflammatory activity in the rat,[3]; carrageenin pleurisy assay,comparable with aspirin
same,CPA Local activity (inactive at stated dose),[3]; local,Inactive
same,"Activity in trypsin hyperalgesic assay, I.C.V.",[4]; injected intracerebroventricularly (I.C.V.),inactive
same,ED50,"[4]; rat hindlimb, p.o.",20 ± 5.1 mg/kg
same,"Duration of Analgesia, time in hours to reduce -1.5 × THA ED50 to 40% inhibition",[4]; p.o.,8.0 h
same,Histopathological evidence of hepatic or renal damage,[14]; mouse,not been shown to produce histopathological evidence of hepatic or renal damage
same,"Histopathology, Rat Kidney","rat liver, rat kidney [15]",-
same,"Histopathology, Rat Liver","rat liver, rat kidney [15]",-
same,Histopathological evidence of hepatic or renal damage,"rat liver, rat kidney [15]; rat",not been shown to produce histopathological evidence of hepatic or renal damage
same,Activity in hot plate assay for strong analgesic activity,hot plate analgesia,inactive
same,Platelet aggregation inhibition,platelet aggregation,does not produce the gastric damage or platelet aggregation inhibition
same,Prostaglandin synthetase inhibition,prostaglandin synthetase,"is not a prostaglandin synthetase, lipoxygenase or peroxidase inhibitor"
same,Lipoxygenase inhibition,lipoxygenase,"is not a prostaglandin synthetase, lipoxygenase or peroxidase inhibitor"
same,Inhibition of analgesic activity by naloxone,[16],not inhibited by naloxone
same,Gastric damage in the rat,gastric damage [12]; after 80 mg/kg,does not produce gastric damage
same,Peroxidase inhibition,peroxidase,"is not a prostaglandin synthetase, lipoxygenase or peroxidase inhibitor"
same,Gastric damage associated with aspirin-like drugs,gastric damage [17],does not produce the gastric damage
same,ED50,"acetic acid writhing [13]; rat, p.o.",50 ± 0.6 mg/kg
same,ED50,[6],57 mg/kg
same,Antipyretic activity in the rat,[6]; yeast-induced hyperthermia,comparable with aspirin and phenacetin
same,Methemoglobinemia (Cyanosis),methemoglobinemia [8]; @ 200 mg/kg p.o.,Slight
same,Methemoglobinaemia,"methemoglobinemia [8]; dogs, high dose levels",has produced methemoglobinaemia in dogs at high dose levels
same,"AI Activity in Adrex, Cells",[9],Active
same,"AI Activity in Adrex, Vol.",[9],Active
same,Methemoglobinemia (Cyanosis),methemoglobinemia [10],No
same,Methemoglobinaemia,"methemoglobinemia [10]; rats, high oral doses",not been shown
same,Depletion of hepatic glutathione,hepatic glutathione; mouse,not been shown
same,LD50 at 168 h,"[11]; ip, 7 day observation",410 mg/kg
same,LD50 at 168 h,"[11]; po, 7 day observation",1000 mg/kg
same,Binding to opiate receptors in vitro,opiate receptors,does not bind to opiate receptors in vitro
CN1CC[C@]23c4c5ccc(O)c4O[C@H]2[C@@H](O)C=C[C@H]3[C@H]1C5 [Morphine],Activity in hot plate assay for strong analgesic activity,hot plate analgesia,active
"CCOc1ccc(NC(C)=O)cc1 [Phenacetin, p-ethoxyacetanilide]",LD50 at 168 h,[2]; ip,620 mg/kg
same,LD50 at 168 h,[2]; po,2500 mg/kg
same,"Duration of AI Activity, time in hrs to reduce 2 × CP cell ED50 to 40% inhibition of Vol.: Cells",[3],7.0 h
same,ED50,"[3]; 3 h, read-out: CPA ED50, Cells",110 ± 15.5 mg/kg
same,ED50,"[3]; 3 h, read-out: CPA ED50, Vol.",102 ± 14.6 mg/kg
same,"Duration of AI Activity, time in hrs to reduce 2 × CP cell ED50 to 40% inhibition of Vol.: Vol.",[3],10.5 h
same,CPA Local activity (inactive at stated dose),[3]; local,Inactive
same,ED50,[4]; Rattus norvegicus,69 ± 11.6 mg/kg
same,"Duration of Analgesia, time in hours to reduce -1.5 × THA ED50 to 40% inhibition",[4]; p.o.,5.7 h
same,"Histopathology, Mouse Kidney","[14]; @ 40% LD50, i.p.",-
same,"Histopathology, Mouse Liver","[14]; @ 40% LD50, i.p.",-
same,"Histopathology, Rat Kidney","rat liver, rat kidney [15]",-
same,"Histopathology, Rat Liver","rat liver, rat kidney [15]",-
same,ED50,acetic acid writhing [13]; Rattus norvegicus,46 ± 10.1 mg/kg
same,ED50,acetic acid writhing [5]; Mus musculus,116 ± 14.5 mg/kg
same,ED50,[6],55 ± 28.6 mg/kg
same,Methemoglobinemia (Cyanosis),methemoglobinemia [8]; @ 100 mg/kg p.o.,Yes
same,Methemoglobinaemia,methemoglobinemia [8]; relatively low dose levels,produces severe methemoglobinaemia at relatively low dose levels
same,"AI Activity in Adrex, Cells",[9],Inactive
same,Methemoglobinemia (Cyanosis),methemoglobinemia [10],Yes
same,Hepatic Gluathione Depletion,hepatic glutathione,+ (90% depletion over a 5 hr period)
same,LD50 at 168 h,"[11]; ip, 7 day observation",900 mg/kg
same,LD50 at 168 h,"[11]; po, 7 day observation",2900 mg/kg
